Assay results published in patent publication US20120101100A1 (priority 2008, published 2012).

Target: S. aureus GyrB ATPase (Staphylococcus aureus, UniProt P0A0K8)
Test: S. aureus (SAU) GyrB ATPase inhibition, malachite green phosphate detection (E. coli GyrA + S. aureus GyrB)
Format: biochemical
Conditions: 10 compound concentrations; 500 μM ATP
Procedure, shortened: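 E. coli GyrA and S. aureus GyrB (1.25 nM each) with 500 μM ATP and 5 μg/ml sheared salmon sperm DNA in 50 mM Hepes pH 7.5, 8.0 mM MgCl2. Released phosphate detected with ammonium molybdate/malachite green at 650 nm; 2% DMSO as 0% and 2 μM novobiocin as 100% inhibition; IC50 from 10 concentrations.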

S. aureus GyrB ATPase, sequence (P0A0K8 whole entry): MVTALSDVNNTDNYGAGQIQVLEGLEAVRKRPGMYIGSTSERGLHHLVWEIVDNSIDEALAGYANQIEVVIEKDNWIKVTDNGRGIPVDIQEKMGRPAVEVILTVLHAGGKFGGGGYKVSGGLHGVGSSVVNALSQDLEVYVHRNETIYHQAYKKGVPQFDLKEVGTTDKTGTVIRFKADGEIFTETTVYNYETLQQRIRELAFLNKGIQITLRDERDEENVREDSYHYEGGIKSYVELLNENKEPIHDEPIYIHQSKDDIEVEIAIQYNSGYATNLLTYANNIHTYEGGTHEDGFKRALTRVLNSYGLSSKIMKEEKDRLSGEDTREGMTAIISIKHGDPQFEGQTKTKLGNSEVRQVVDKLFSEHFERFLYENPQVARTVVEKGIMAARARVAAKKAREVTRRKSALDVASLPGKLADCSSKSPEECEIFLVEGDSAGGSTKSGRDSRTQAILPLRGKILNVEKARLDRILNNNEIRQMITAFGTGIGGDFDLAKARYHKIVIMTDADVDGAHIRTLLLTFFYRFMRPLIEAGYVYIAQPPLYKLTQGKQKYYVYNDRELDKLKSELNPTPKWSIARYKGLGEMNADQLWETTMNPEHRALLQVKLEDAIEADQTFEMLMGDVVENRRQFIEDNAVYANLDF
S. aureus GyrB ATPase, sequence (P0AES4 whole entry, further chain): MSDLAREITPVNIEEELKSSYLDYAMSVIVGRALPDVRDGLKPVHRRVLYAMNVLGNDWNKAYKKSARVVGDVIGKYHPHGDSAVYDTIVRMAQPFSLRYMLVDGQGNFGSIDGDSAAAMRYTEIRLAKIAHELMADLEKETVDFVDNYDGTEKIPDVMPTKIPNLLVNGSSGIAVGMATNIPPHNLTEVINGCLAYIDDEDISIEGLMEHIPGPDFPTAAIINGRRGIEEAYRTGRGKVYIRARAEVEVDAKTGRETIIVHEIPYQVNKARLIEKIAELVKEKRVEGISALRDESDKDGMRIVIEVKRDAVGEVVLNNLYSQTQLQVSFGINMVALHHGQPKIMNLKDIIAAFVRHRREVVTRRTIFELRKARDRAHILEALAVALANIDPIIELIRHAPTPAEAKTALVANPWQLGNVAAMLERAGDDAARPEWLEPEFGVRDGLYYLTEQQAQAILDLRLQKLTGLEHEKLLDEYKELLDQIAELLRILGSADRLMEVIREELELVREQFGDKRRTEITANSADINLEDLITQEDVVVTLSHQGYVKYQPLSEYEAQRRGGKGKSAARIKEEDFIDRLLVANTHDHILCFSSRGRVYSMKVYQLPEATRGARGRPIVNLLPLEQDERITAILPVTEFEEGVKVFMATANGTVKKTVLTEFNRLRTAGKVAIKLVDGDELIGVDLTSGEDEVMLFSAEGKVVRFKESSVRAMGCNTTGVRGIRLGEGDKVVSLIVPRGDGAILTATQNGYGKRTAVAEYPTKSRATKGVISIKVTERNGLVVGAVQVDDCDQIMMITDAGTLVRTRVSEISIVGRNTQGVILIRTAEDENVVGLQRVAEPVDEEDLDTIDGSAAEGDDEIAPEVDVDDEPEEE

SMILES | IC50 [nM]
CCNC(=O)Nc1cc(-c2nc(C(F)(F)F)cs2)c(-c2cncc(-c3ncc[nH]3)c2)cn1 [Example 25, 1-(5′-(1H-Imidazol-2-yl)-4-(4-(trifluoromethyl)thiazol-2-yl)-3,3′-bipyridin-6-yl)-3-ethylurea] | 3

Same assay, conditions: compound concentration of 1.0 μM unless otherwise noted; average value where assay was carried out more than once; read-out: S. aureus (SAU) GyrB ATPase % Inhibition

SMILES | inhibition at 1 µM [%]
CCNC(=O)Nc1cc(-c2nc(-c3ccccc3)cs2)c(-c2cncc(-c3nnc(C)o3)c2)cn1 [Example 94, 1-ethyl-3-(5′-(5-methyl-1,3,4-oxadiazol-2-yl)-4-(4-phenylthiazol-2-yl)-3,3′-bipyridin-6-yl)urea] | 98
CCNC(=O)Nc1cc(-c2sc(C)nc2C)c(-c2cncc(-c3n[nH]c(=O)o3)c2)cn1 [Example 147] | 95
CCNC(=O)Nc1cc(-c2nc(-c3cccc(OC)n3)cs2)c(-c2cncc(-c3n[nH]c(=O)o3)n2)cn1 [Example 262, 1-ethyl-3-(4-(4-(6-methoxypyridin-2-yl)thiazol-2-yl)-5-(6-(5-oxo-4,5-dihydro-1,3,4-oxadiazol-2-yl)pyrazin-2-yl)pyridin-2-yl)urea] | 97
CCNC(=O)Nc1cc(-c2nc(C(F)(F)F)cs2)c(-c2ncc(-c3n[nH]c(=O)o3)s2)cn1 [Example 9, 1-ethyl-3-(5-(5-(5-oxo-4,5-dihydro-1,3,4-oxadiazol-2-yl)thiazol-2-yl)-4-(4-(trifluoromethyl)thiazol-2-yl)pyridin-2-yl)urea] | 106
CCNC(=O)Nc1cc(-c2nc(C(F)(F)F)cs2)c(-c2cncc(-c3nc(C)no3)c2)cn1 [Example 8] | 95
CCNC(=O)Nc1cc(-c2nc(-c3ccccc3)cs2)c(-c2cc(OCC3CC3)nc(-c3n[nH]c(=O)o3)c2)cn1 [Example 85, 1-(2′-(cyclopropylmethoxy)-6′-(5-oxo-4,5-dihydro-1,3,4-oxadiazol-2-yl)-4-(4-phenylthiazol-2-yl)-3,4′-bipyridin-6-yl)-3-ethylurea] | 93
CCNC(=O)Nc1cc(-c2nc3ccccc3s2)c(-c2cncc(-c3n[nH]c(=O)o3)c2)cn1 [Example 12, 1-(4-(benzo[d]thiazol-2-yl)-5′-(5-oxo-4,5-dihydro-1,3,4-oxadiazol-2-yl)-3,3′-bipyridin-6-yl)-3-ethylurea] | 108
CCNC(=O)Nc1cc(-c2nc(C(F)(F)F)cs2)c(-c2cncc(-c3nn(C(=O)N4CCOCC4)c(=O)o3)c2)cn1 [Example 176] | 98
CCNC(=O)Nc1cc(-c2nc(C3CCOC(C)(C)C3)cs2)c(-c2cncc(-c3n[nH]c(=O)o3)c2)cn1 (stereo not shown) [Example 212] | 97
CCNC(=O)Nc1cc(-c2nc(-c3cccc(OC)n3)cs2)c(-c2cncc(-c3nnc(C)o3)c2)cn1 [Example 250, 1-ethyl-3-(4-(4-(6-methoxypyridin-2-yl)thiazol-2-yl)-5′-(5-methyl-1,3,4-oxadiazol-2-yl)-3,3′-bipyridin-6-yl)urea] | 101
CCNC(=O)Nc1cc(-c2nc(C(F)(F)F)cs2)c(-c2cc(-c3n[nH]c(=O)o3)cnc2OC2C[C@H]3CC[C@@H](C2)N3C)cn1 (stereo partly shown) [Example 227] | 100
CCNC(=O)Nc1cc(-c2nc(C(F)(F)F)cs2)c(-c2cncc(-c3ncc[nH]3)c2)cn1 [Example 25, 1-(5′-(1H-Imidazol-2-yl)-4-(4-(trifluoromethyl)thiazol-2-yl)-3,3′-bipyridin-6-yl)-3-ethylurea] | 100
CCCCOc1ncc(-c2cnc(NC(=O)NCC)cc2-c2nc(C(F)(F)F)cs2)cc1-c1n[nH]c(=O)o1 [Example 40, 1-(6′-butoxy-5′-(5-oxo-4,5-dihydro-1,3,4-oxadiazol-2-yl)-4-(4-(trifluoromethyl)thiazol-2-yl)-3,3′-bipyridin-6-yl)-3-ethylurea] | 117
CCNC(=O)Nc1cc(-c2nc(-c3cccc(OC)n3)cs2)c(-c2nc(-c3ncnn3C)c(-c3nnc(C)o3)s2)cn1 [Example 252, 1-ethyl-3-(4-(4-(6-methoxypyridin-2-yl)thiazol-2-yl)-5-(5-(5-methyl-1,3,4-oxadiazol-2-yl)-4-(1-methyl-1H-1,2,4-triazol-5-yl)thiazol-2-yl)pyridin-2-yl)urea] | 99
CCNC(=O)Nc1cc(-c2nc(C(F)(F)F)cs2)c(-c2cc(OC(C)C)nc(-c3n[nH]c(=O)o3)c2)cn1 [Example 79, 1-ethyl-3-(2′-isopropoxy-6′-(5-oxo-4,5-dihydro-1,3,4-oxadiazol-2-yl)-4-(4-(trifluoromethyl)thiazol-2-yl)-3,4′-bipyridin-6-yl)urea] | 95
CCNC(=O)Nc1cc(-c2nc(-c3ccccc3)cs2)c(-c2cc(OCC)nc(-c3n[nH]c(=O)o3)c2)cn1 [Example 77, 1-(2′-ethoxy-6′-(5-oxo-4,5-dihydro-1,3,4-oxadiazol-2-yl)-4-(4-phenylthiazol-2-yl)-3,4′-bipyridin-6-yl)-3-ethylurea] | 97
CCNC(=O)Nc1cc(-c2nc(C(F)(F)F)c(C)s2)c(-c2cncc(-c3nnc(C)o3)c2)cn1 [Example 138, 1-Ethyl-3-(5′-(5-methyl-1,3,4-oxadiazol-2-yl)-4-(5-methyl-4-(trifluoromethyl)thiazol-2-yl)-3,3′-bipyridin-6-yl)urea] | 104
CCNC(=O)Nc1cc(-c2nc(C(F)(F)F)cs2)c(-c2cc(-c3n[nH]c(=O)o3)cnc2OCCN2CCOCC2)cn1 [Example 102, 1-Ethyl-3-(2′-(2-morpholinoethoxy)-5′-(5-oxo-4,5-dihydro-1,3,4-oxadiazol-2-yl)-4-(4-(trifluoromethyl)thiazol-2-yl)-3,3′-bipyridin-6-yl)urea] | 92
CCNC(=O)Nc1cc(-c2nc(C(F)(F)F)cs2)c(-c2cncc(-c3nnc(N4CC[C@@H](O)C4)o3)c2)cn1 [Example 178] | 97
CCNC(=O)Nc1cc(-c2nc(C(F)(F)F)cs2)c(-c2cc(OC(C)C)nc(-c3nnc(C)o3)c2)cn1 [Example 80, 1-ethyl-3-(2′-isopropoxy-6′-(5-methyl-1,3,4-oxadiazol-2-yl)-4-(4-(trifluoromethyl)thiazol-2-yl)-3,4′-bipyridin-6-yl)urea] | 96
CCNC(=O)Nc1cc(-c2nnc(-c3ccccc3)o2)c(-c2ncc(-c3n[nH]c(=O)o3)s2)cn1 [Example 194] | 101
CCNC(=O)Nc1cc(-c2nc(-c3ccccc3)cs2)c(-c2cncc(S(N)(=O)=O)c2)cn1 [Example 128] | 92
CCNC(=O)Nc1cc(-c2nc(-c3cnn(C)c3)cs2)c(-c2cc(-c3n[nH]c(=O)o3)cnc2OCC2CC2)cn1 [Example 221] | 99
CCNC(=O)Nc1cc(-c2nc(C(F)(F)F)cs2)c(-c2cc(-c3nnc(C)o3)cnc2OC(C)CN(C)C)cn1 (stereo not shown) [Example 114, 1-(2′-(1-(Dimethylamino)propan-2-yloxy)-5′-(5-methyl-1,3,4-oxadiazol-2-yl)-4-(4-(trifluoromethyl)thiazol-2-yl)-3,3′-bipyridin-6-yl)-3-ethylurea] | 97
CCNC(=O)Nc1cc(-c2nnc(-c3ccccc3)o2)c(-c2cnc(OC)c(-c3n[nH]c(=O)o3)c2)cn1 [Example 197] | 106
CCNC(=O)Nc1cc(-c2nc(C(F)(F)F)c(C)s2)c(-c2cncc(-c3n[nH]c(=O)o3)c2)cn1 [Example 145] | 100
CCCNC(=O)Nc1cc(-c2nc(C(F)(F)F)cs2)c(-c2cncc(-c3nnc(C)o3)c2)cn1 [Example 173, 1-(5′-(5-methyl-1,3,4-oxadiazol-2-yl)-4-(4-(trifluoromethyl)thiazol-2-yl)-3,3′-bipyridin-6-yl)-3-propylurea] | 95
